Assay results from ChEMBL document CHEMBL4145641, “Identification of Thiourea-Based Inhibitors of the B-Cell Lymphoma 6 BTB Domain via NMR-Based Fragment Screening and Computer-Aided Drug Design” (J Med Chem, 2018).

Assays:
[1] = Solubility in aqueous solution containing 1% DMSO; format: physicochemical
[2] = test system: SU-DHL-6; assay: Growth inhibition of human SUDHL6 cells incubated for 48 hrs by cell-titer-blue dye based assay; format: functional; details: SU-DHL-6, 48 h
[3] = test system: SUD4; assay: Growth inhibition of human SUDHL4 cells incubated for 48 hrs by cell-titer-blue dye based assay; format: functional; details: SU-DHL-4, 48 h
[4] = test system: KARPAS-422; assay: Growth inhibition of human KARPAS422 cells incubated for 48 hrs by cell-titer-blue dye based assay; format: functional; details: KARPAS-422, 48 h
[5] = Growth inhibition of human OCI-Ly1-B50 cells incubated for 48 hrs by cell-titer-blue dye based assay; format: functional
[6] = test system: OCI-Ly7; assay: Growth inhibition of human OCI-LY7 cells incubated for 48 hrs by cell-titer-blue dye based assay; format: functional; details: OCI-Ly7, 48 h
[7] = test system: OCI-Ly1; assay: Growth inhibition of human OCI-LY1 cells incubated for 48 hrs by cell-titer-blue dye based assay; format: functional; details: OCI-Ly1, 48 h
[8] = test system: Toledo; assay: Growth inhibition of human Toledo cells incubated for 48 hrs by cell-titer-blue dye based assay; format: functional
[9] = target: B-cell lymphoma 6 protein (Homo sapiens, UniProt P41182); assay: Binding affinity to fluorescently labeled recombinant BCL6 BTB domain (unknown origin) expressed in Escherichia coli BL21 (DE3) incubated for 10 mins by microscale thermophoresis method

Row | Kd [9] | SMILES | solubility [1] | GI50 [2] | GI50 [3] | GI50 [4] | GI50 [5] | GI50 [6] | GI50 [7] | GI50 [8]
1 |  | CCOC(=O)CNC(=O)Cn1cc(CN2CCN(C)CC2)c2ccc(NC(=S)NCCc3c[nH]c4ccccc34)cc21 | > 1000 µM |  |  |  |  |  |  | 
2 |  | CCN(CC)C(=O)Cn1cc(CN2CCN(C)CC2)c2ccc(NC(=S)NCCc3c[nH]c4ccccc34)cc21 | > 1000 µM |  |  |  |  |  |  | 
3 |  | CC(C)NC(=O)Cn1cc(CN2CCN(C)CC2)c2ccc(NC(=S)NCCc3c[nH]c4ccccc34)cc21 | > 1000 µM | > 500 µM | > 500 µM | > 500 µM | > 500 µM | > 500 µM | > 500 µM | > 500 µM
4 | 30 µM | CC[C@H](C)[C@H](NC(=O)[C@H](CCC(=O)O)NC(=O)[C@H](Cc1cnc[nH]1)NC(=O)[C@H](NC(=O)[C@H](CO)NC(=O)[C@H](CCCNC(=N)N)NC(=O)CNC(=O)[C@H](C)NC(=O)[C@H](CCC(=O)O)NC(=O)[C@H](CCCCN)NC(=O)[C@@H](NC(=O)[C@@H](NC(=O)[C@H](C)NC(=O)[C@@H](NC(=O)[C@@H](N)CC(C)C)C(C)C)[C@@H](C)O)C(C)C)[C@@H](C)CC)C(=O)N1CCC[C@@H]1C(=O)N[C@@H](CCCNC(=N)N)C(=O)O |  |  |  |  |  |  |  | 
5 |  | O=C(O)CNC(=O)Cn1ccc2ccc(NC(=S)NCCc3c[nH]c4ccccc34)cc21 |  | > 500 µM | > 500 µM | > 500 µM | > 500 µM | > 500 µM | > 500 µM | > 500 µM
6 |  | CC1CN(C(=O)Cn2cc(CN3CCN(C)CC3)c3ccc(NC(=S)NCCc4c[nH]c5ccccc45)cc32)CCO1 (racemic) | > 1000 µM | > 500 µM | > 500 µM | > 500 µM | > 500 µM | 116 µM | > 500 µM | > 500 µM
7 |  | CN1CCN(Cc2cn(CC(=O)N3CCOCC3)c3cc(NC(=S)NCCc4c[nH]c5ccccc45)ccc23)CC1 | > 1000 µM | > 500 µM | > 500 µM | > 500 µM | > 500 µM | 193 µM | > 500 µM | > 500 µM
8 |  | COC(=O)Cn1cc(CN2CCN(C)CC2)c2ccc(NC(=S)NCCc3c[nH]c4ccccc34)cc21 |  | 100 µM | > 500 µM | > 500 µM | > 500 µM | > 500 µM | > 500 µM | > 500 µM
9 |  | CN1CCN(Cc2cn(CC(=O)N3CCN(C)CC3)c3cc(NC(=S)NCCc4c[nH]c5ccccc45)ccc23)CC1 | > 1000 µM |  |  |  |  |  |  | 
10 |  | CN1CCN(Cc2cn(CC(=O)NCC(=O)O)c3cc(NC(=S)NCCc4c[nH]c5ccccc45)ccc23)CC1 | > 1000 µM | > 500 µM | > 500 µM | > 500 µM | > 500 µM | > 500 µM | > 500 µM | > 500 µM
11 |  | CN1CCN(Cc2cn(CC(=O)N3CCCCC3)c3cc(NC(=S)NCCc4c[nH]c5ccccc45)ccc23)CC1 | > 1000 µM | 60 µM | 103 µM | > 500 µM | > 500 µM | 33 µM | 100 µM | > 500 µM
